Measured values taken from patent publication US9427482B2, “Agents for clearing biomolecules from circulation” (KONINKLIJKE PHILIPS N.V., priority 2010, dated 2016).

What was measured:
[1] = Mouse radiation dosimetry (voxelized mouse model, EGSNRC)
Protocol: Radiation dosimetry estimates were calculated for a male human model (standard 73 Kg adult) and for a voxelized mouse model by using the mouse biodistribution data (Example 12, Tables 7 and 8) according to the MIRD methodology. Activity concentration in these organs were converted in percent injected dose (% ID) and decay corrected to the time of injection. The % ID for blood, muscle and bone were estimated from the % ID/g of tissue and assuming 6%, 42% and 11% of the body weight. Whenever possible the time activity curves were fitted by a two-phase exponential clearance function. The fitted function was then integrated analytically to yield the organ residence times (Table 9). […] The time activity curve of the tumor was fitted by a mono-exponential uptake function defined as F(t)=a0(1−exp(−a1t)).
Radiation doses to the mouse organs were evaluated using the MIRD methodology where the S-factors in the mouse were calculated using a voxelized model of a mouse and the electron transport program EGSNRC to calculate energy deposition. The MOBY mouse phantom of Segars et al. was voxelized on a 0.2 mm grid and further modified to include the following organs: intestine wall and content, stomach wall and content, bladder wall and content and a 20 μl gall bladder. Finally, a 0.53 g tumor was added to the left side of the neck of the animal. Twenty-seven independent simulations, each for 10 millions decays, were performed with the program EGSNRC to calculate the energy deposition in each target organ for each source organ. The simulation included all decay particles from ^177Lu as listed in www.nndc.bnl.gov/MIRD tables. These S-factors were then used with the organ residence times measured above.

tumor = assay: Dual isotope biodistribution, mice pretargeted with CC49-TCO 20 (Example 10); format: in vivo; settings: two doses of 12; 3 h after ^177Lu-tetrazine 15
Protocol: Tumor-bearing mice (ca. 100 mm^3 tumor size; n=4) were injected with ^125I-CC49 functionalized with 7.5 TCO-20 groups (100 μg/mouse, ca. 0.2 MBq). Thirty and 48 hours post-mAb injection the mice received one dose of clearing agent (galactose-MSA-tetrazine, 160 μg/dose) followed 2 h later by ^177Lu-tetrazine 15 (10 eq. with respect to the mAb, ca. 0.5 MBq). Three hours post-tetrazine injection the mice were anesthetized and sacrificed by cervical dislocation, blood was withdrawn by heart puncture, organs and tissues of interest were harvested and blotted dry. All collected samples were weighed and added with 1 mL PBS. The sample radioactivity was measured in a gamma-counter with a dual-isotope protocol (10-80 keV window for ^125I and 155-380 keV window for ^177Lu) along with standards to determine the percent injected dose per gram tissue (% ID/g).

Effective Dose [1]: 15.6 mSv/MBq
Organ Radiation dose Bladder Wall [1]: 168 mGy/MBq
Organ Radiation dose Brain [1]: 1 mGy/MBq
Organ Radiation dose Cranium [1]: 13 mGy/MBq
Organ Radiation dose Femur [1]: 8 mGy/MBq
Organ Radiation dose Gall Bladder [1]: 2 mGy/MBq
Organ Radiation dose Heart Wall [1]: 2 mGy/MBq
Organ Radiation dose Intestine Wall [1]: 9 mGy/MBq
Organ Radiation dose Kidneys [1]: 58 mGy/MBq
Organ Radiation dose Liver [1]: 10 mGy/MBq
Organ Radiation dose Lungs [1]: 5 mGy/MBq
Organ Radiation dose Pancreas [1]: 2 mGy/MBq
Organ Radiation dose Ribs [1]: 8 mGy/MBq
Organ Radiation dose Skin [1]: 1 mGy/MBq
Organ Radiation dose Spine [1]: 8 mGy/MBq
Organ Radiation dose Spine (marrow) [1]: 7 mGy/MBq
Organ Radiation dose Spleen [1]: 15 mGy/MBq
Organ Radiation dose Stomach Wall [1]: 16 mGy/MBq
Organ Radiation dose Testes (ovaries) [1]: 1 mGy/MBq
Organ Radiation dose Thyroid [1]: 1 mGy/MBq
Organ Radiation dose Trachea [1]: 2 mGy/MBq
Radiation dose Whole Body [1]: 5 mGy/MBq
Radiation dose Tumor ([1]; 0.53 g tumor): 479 mGy/MBq
Structure (SMILES): O=C([O-])CN1CCN(CC(=O)[O-])CCN(CC(=O)NCCOCCOCCOCCOCCOCCOCCOCCOCCOCCOCCOCCNC(=O)CCCC(=O)Nc2ccc(-c3nnc(-c4ccccn4)nn3)nc2)CCN(CC(=O)[O-])CC1.[177Lu+3] [^177Lu-tetrazine]
^177Lu-tetrazine Blood (tumor): 0.03 ± 0.00 % ID/gram
^177Lu-tetrazine Bone (tumor): 0.08 ± 0.04 % ID/gram
^177Lu-tetrazine Brain (tumor): 0.01 ± 0.00 % ID/gram
^177Lu-tetrazine Heart (tumor): 0.05 ± 0.01 % ID/gram
^177Lu-tetrazine Kidney (tumor): 1.50 ± 0.24 % ID/gram
^177Lu-tetrazine Liver (tumor): 0.19 ± 0.02 % ID/gram
^177Lu-tetrazine Lung (tumor): 0.24 ± 0.02 % ID/gram
^177Lu-tetrazine Muscle (tumor): 0.03 ± 0.00 % ID/gram
^177Lu-tetrazine Spleen (tumor): 0.09 ± 0.01 % ID/gram
^177Lu-tetrazine Tumor (tumor): 9.25 ± 2.16 % ID/gram
^177Lu-tetrazine Tumor/organ Blood (tumor): 304 ± 80
^177Lu-tetrazine Tumor/organ Bone (tumor): 142 ± 59
^177Lu-tetrazine Tumor/organ Brain (tumor): 1674 ± 243
^177Lu-tetrazine Tumor/organ Heart (tumor): 187 ± 20
^177Lu-tetrazine Tumor/organ Kidney (tumor): 6 ± 2
^177Lu-tetrazine Tumor/organ Liver (tumor): 50 ± 10
^177Lu-tetrazine Tumor/organ Lung (tumor): 39 ± 8
^177Lu-tetrazine Tumor/organ Muscle (tumor): 328 ± 96
^177Lu-tetrazine Tumor/organ Spleen (tumor): 108 ± 22
